How the values were obtained:
Type in all cases: in vivo
[1] = system: galium (catchweed bedstraw, Galium aparine); test: Test A postemergence, visual plant response rating; conditions: for Galium plant response rating (0 to 100 scale): 500 g ai/ha, postemergence, 0 is no effect, 100 is complete control; for Galium plant response rating: Postemergence, 125 g ai/ha, 0 to 100 scale (0 no effect, 100 complete control)
Summary of the method: (§1)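 Formulated in a non-phytotoxic solvent mixture including surfactant, each test chemical was sprayed onto the soil surface after sowing, or onto seedlings 2 to 10 cm high. Roughly 10 days later, plants were compared with untreated controls and rated for injury from 0 (no effect) to 100 (complete control).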

[2] = system: ragweed (common ragweed, Ambrosia elatior); test: Test A postemergence, visual plant response rating; conditions: for Ragweed plant response rating (0 to 100 scale): 500 g ai/ha, postemergence, 0 is no effect, 100 is complete control; for Ragweed plant response rating: Postemergence, 125 g ai/ha, 0 to 100 scale (0 no effect, 100 complete control)
Summary of the method: as §1

[3] = system: foxtail, giant (giant foxtail, Setaria faberii); test: Test A postemergence, visual plant response rating; conditions: for Foxtail, Giant plant response rating (0 to 100 scale): 500 g ai/ha, postemergence, 0 is no effect, 100 is complete control; for Foxtail, Giant plant response rating: Postemergence, 125 g ai/ha, 0 to 100 scale (0 no effect, 100 complete control)
Summary of the method: as §1

[4] = system: pigweed (Amaranthus retroflexus); test: Test A postemergence, visual plant response rating; conditions: for Pigweed plant response rating (0 to 100 scale): 500 g ai/ha, postemergence, 0 is no effect, 100 is complete control; for Pigweed plant response rating: Postemergence, 125 g ai/ha, 0 to 100 scale (0 no effect, 100 complete control)
Summary of the method: as §1

[5] = system: blackgrass (Alopecurus myosuroides); test: Test A postemergence, visual plant response rating; conditions: for Blackgrass plant response rating (0 to 100 scale): 500 g ai/ha, postemergence, 0 is no effect, 100 is complete control; for Blackgrass plant response rating: Postemergence, 125 g ai/ha, 0 to 100 scale (0 no effect, 100 complete control)
Summary of the method: as §1

[6] = system: barnyardgrass (Echinochloa crus-galli); test: Test A postemergence, visual plant response rating; conditions: for Barnyardgrass plant response rating (0 to 100 scale): 500 g ai/ha, postemergence, 0 is no effect, 100 is complete control; for Barnyardgrass plant response rating: Postemergence, 125 g ai/ha, 0 to 100 scale (0 no effect, 100 complete control)
Summary of the method: as §1

[7] = system: wheat (Triticum aestivum); test: Test A postemergence, visual plant response rating; conditions: for Wheat plant response rating (0 to 100 scale): 500 g ai/ha, postemergence, 0 is no effect, 100 is complete control; for Wheat plant response rating: Postemergence, 125 g ai/ha, 0 to 100 scale (0 no effect, 100 complete control)
Summary of the method: as §1

kochia (Kochia scoparia) [8] = test: Test A postemergence, visual plant response rating; conditions: for Kochia plant response rating (0 to 100 scale): 500 g ai/ha, postemergence, 0 is no effect, 100 is complete control; for Kochia plant response rating: Postemergence, 125 g ai/ha, 0 to 100 scale (0 no effect, 100 complete control)
Summary of the method: as §1

[9] = system: Italian ryegrass (Lolium multiflorum); test: Test A postemergence, visual plant response rating; conditions: for Ryegrass, Italian plant response rating (0 to 100 scale): 500 g ai/ha, postemergence, 0 is no effect, 100 is complete control; for Ryegrass, Italian plant response rating: Postemergence, 125 g ai/ha, 0 to 100 scale (0 no effect, 100 complete control)
Summary of the method: as §1

corn (Zea mays) = test: Test A postemergence, visual plant response rating; conditions: for Corn plant response rating (0 to 100 scale): 500 g ai/ha, postemergence, 0 is no effect, 100 is complete control; for Corn plant response rating: Postemergence, 125 g ai/ha, 0 to 100 scale (0 no effect, 100 complete control)
Summary of the method: as §1

[10] = system: ragweed (common ragweed, Ambrosia elatior); test: Test A preemergence, visual plant response rating; conditions: for Ragweed plant response rating: 125 g ai/ha, preemergence, 0 to 100 scale, 0 no effect, 100 complete control; for Ragweed plant response rating (0 to 100 scale): 500 g ai/ha Preemergence, approx. 10 days
Summary of the method: as §1

[11] = system: foxtail, giant (giant foxtail, Setaria faberii); test: Test A preemergence, visual plant response rating; conditions: for Foxtail, Giant plant response rating: 125 g ai/ha, preemergence, 0 to 100 scale, 0 no effect, 100 complete control; for Foxtail, Giant plant response rating (0 to 100 scale): 500 g ai/ha Preemergence, approx. 10 days
Summary of the method: as §1

[12] = system: pigweed (Amaranthus retroflexus); test: Test A preemergence, visual plant response rating; conditions: for Pigweed plant response rating: 125 g ai/ha, preemergence, 0 to 100 scale, 0 no effect, 100 complete control; for Pigweed plant response rating (0 to 100 scale): 500 g ai/ha Preemergence, approx. 10 days
Summary of the method: as §1

[13] = system: barnyardgrass (Echinochloa crus-galli); test: Test A preemergence, visual plant response rating; conditions: for Barnyardgrass plant response rating: 125 g ai/ha, preemergence, 0 to 100 scale, 0 no effect, 100 complete control; for Barnyardgrass plant response rating (0 to 100 scale): 500 g ai/ha Preemergence, approx. 10 days
Summary of the method: as §1

kochia (Kochia scoparia) [14] = test: Test A preemergence, visual plant response rating; conditions: for Kochia plant response rating: 125 g ai/ha, preemergence, 0 to 100 scale, 0 no effect, 100 complete control; for Kochia plant response rating (0 to 100 scale): 500 g ai/ha Preemergence, approx. 10 days
Summary of the method: as §1

[15] = system: Italian ryegrass (Lolium multiflorum); test: Test A preemergence, visual plant response rating; conditions: for Ryegrass, Italian plant response rating: 125 g ai/ha, preemergence, 0 to 100 scale, 0 no effect, 100 complete control; for Ryegrass, Italian plant response rating (0 to 100 scale): 500 g ai/ha Preemergence, approx. 10 days
Summary of the method: as §1

rice (Oryza sativa) = test: Test B flooded paddy test, visual plant response rating; conditions: 250 g ai/ha, Flood, applied to paddy water, 2-leaf stage, evaluated after 13 to 15 days
Summary of the method: (§2)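 Test pots are flooded 3 cm above the soil at treatment, and the test substance is introduced into this standing water. After keeping the flood level and growing plants, treated at the 2-leaf stage, for 13 to 15 days under glass, injury is assessed visually versus controls.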

[16] = system: sedge, umbrella (small-flower umbrella sedge, Cyperus difformis); test: as above; conditions: 250 g ai/ha, Flood, applied to paddy water, 2-leaf stage, evaluated after 13 to 15 days
Summary of the method: as §2

[17] = system: barnyardgrass (Echinochloa crus-galli); test: as above; conditions: 250 g ai/ha, Flood, applied to paddy water, 2-leaf stage, evaluated after 13 to 15 days
Summary of the method: as §2

[18] = system: ducksalad (Heteranhera limosa); test: as above; conditions: 250 g ai/ha, Flood, applied to paddy water, 2-leaf stage, evaluated after 13 to 15 days
Summary of the method: as §2

SMILES	Galium plant response rating (0 to 100 scale) [1]	Galium plant response rating [1]	Ragweed plant response rating (0 to 100 scale) [2]	Ragweed plant response rating [2]	Foxtail, Giant plant response rating (0 to 100 scale) [3]	Foxtail, Giant plant response rating [3]	Pigweed plant response rating (0 to 100 scale) [4]	Pigweed plant response rating [4]	Blackgrass plant response rating (0 to 100 scale) [5]	Blackgrass plant response rating [5]	Barnyardgrass plant response rating (0 to 100 scale) [6]	Barnyardgrass plant response rating [6]	Wheat plant response rating (0 to 100 scale) [7]	Wheat plant response rating [7]	Kochia plant response rating (0 to 100 scale) (kochia (Kochia scoparia) [8])	Kochia plant response rating (kochia (Kochia scoparia) [8])	Ryegrass, Italian plant response rating (0 to 100 scale) [9]	Ryegrass, Italian plant response rating [9]	Corn plant response rating (0 to 100 scale) (corn (Zea mays))	Corn plant response rating (corn (Zea mays))	also measured
CON=C(c1cc(C)cs1)c1c(O)c(C)nn(C)c1=O (mixture of isomers) [Compound 133]	60	20	30	10	10	0	80	50	0	0	0	0	0	0	60	20	0	0	0	0	Ragweed plant response rating [10]: 0; Ragweed plant response rating (0 to 100 scale) [10]: 40; Foxtail, Giant plant response rating [11]: 0; Foxtail, Giant plant response rating (0 to 100 scale) [11]: 0; Pigweed plant response rating [12]: 0; Pigweed plant response rating (0 to 100 scale) [12]: 0; Barnyardgrass plant response rating [13]: 0; Barnyardgrass plant response rating (0 to 100 scale) [13]: 0; Kochia plant response rating (kochia (Kochia scoparia) [14]): 0; Kochia plant response rating (0 to 100 scale) (kochia (Kochia scoparia) [14]): 20; Ryegrass, Italian plant response rating [15]: 0; Ryegrass, Italian plant response rating (0 to 100 scale) [15]: 0; Plant response rating, Rice (0 to 100 scale, 0 is no effect, 100 is complete control) (rice (Oryza sativa)): 0; Plant response rating, Sedge, Umbrella (0 to 100 scale, 0 is no effect, 100 is complete control) [16]: 0; Plant response rating, Barnyardgrass (0 to 100 scale, 0 is no effect, 100 is complete control) [17]: 0; Plant response rating, Ducksalad (0 to 100 scale, 0 is no effect, 100 is complete control) [18]: 0
CON=C(c1c(O)c(C)nn(C)c1=O)c1cccc2ccc(Cl)cc12 [Compound 110]	100	90	90	60	90	50	100	90	90	90	70	50	0	0	60	50	80	30	30	10	Ragweed plant response rating [10]: 40; Ragweed plant response rating (0 to 100 scale) [10]: 90; Foxtail, Giant plant response rating [11]: 60; Foxtail, Giant plant response rating (0 to 100 scale) [11]: 100; Pigweed plant response rating [12]: 50; Pigweed plant response rating (0 to 100 scale) [12]: 100; Barnyardgrass plant response rating [13]: 70; Barnyardgrass plant response rating (0 to 100 scale) [13]: 80; Kochia plant response rating (kochia (Kochia scoparia) [14]): 0; Kochia plant response rating (0 to 100 scale) (kochia (Kochia scoparia) [14]): 10; Ryegrass, Italian plant response rating [15]: 60; Ryegrass, Italian plant response rating (0 to 100 scale) [15]: 70; Plant response rating, Rice (0 to 100 scale, 0 is no effect, 100 is complete control) (rice (Oryza sativa)): 0; Plant response rating, Sedge, Umbrella (0 to 100 scale, 0 is no effect, 100 is complete control) [16]: 0; Plant response rating, Barnyardgrass (0 to 100 scale, 0 is no effect, 100 is complete control) [17]: 0; Plant response rating, Ducksalad (0 to 100 scale, 0 is no effect, 100 is complete control) [18]: 0
CON=C(c1c(Cl)ccc(C)c1F)c1c(O)c(C)nn(C)c1=O [Compound 101]	80	80	60	40	20	0	40	10	30	0	30	30	0	0	30	0	10	0	0	0	Ragweed plant response rating [10]: 20; Ragweed plant response rating (0 to 100 scale) [10]: 70; Foxtail, Giant plant response rating [11]: 0; Foxtail, Giant plant response rating (0 to 100 scale) [11]: 10; Pigweed plant response rating [12]: 0; Pigweed plant response rating (0 to 100 scale) [12]: 10; Barnyardgrass plant response rating [13]: 0; Barnyardgrass plant response rating (0 to 100 scale) [13]: 10; Kochia plant response rating (kochia (Kochia scoparia) [14]): 0; Kochia plant response rating (0 to 100 scale) (kochia (Kochia scoparia) [14]): 10; Ryegrass, Italian plant response rating [15]: 0; Ryegrass, Italian plant response rating (0 to 100 scale) [15]: 40; Plant response rating, Rice (0 to 100 scale, 0 is no effect, 100 is complete control) (rice (Oryza sativa)): 0; Plant response rating, Sedge, Umbrella (0 to 100 scale, 0 is no effect, 100 is complete control) [16]: 0; Plant response rating, Barnyardgrass (0 to 100 scale, 0 is no effect, 100 is complete control) [17]: 0; Plant response rating, Ducksalad (0 to 100 scale, 0 is no effect, 100 is complete control) [18]: 0

Reference: patent publication US20210045385A1, “PYRIDAZINONE-SUBSTITUTED KETOXIMES AS HERBICIDES” (FMC Corporation, priority 2018, published 2021)
